# Test results taken from US20150051262A1, “NMDA RECEPTOR MODULATORS AND USES THEREOF” (Northwestern University, priority 2011, published 2015).
# Residues, ends and D or L forms follow the SMILES beside them.
# What was measured:
# [1] = test system: floating behavior; assay: Porsolt test procedure 2; assay type: in vivo, Sprague Dawley rats
# [2] = test system: ultrasonic vocalizations; assay: Rat ultrasonic vocalizations (USVs) test; assay type: in vivo, SD rats; conditions: 1 mg/kg PO, 1 hr before testing
# Protocol: FIGS. 14A and 14B show the results of the rat USVs test. Positive emotional learning was measured during the conditioned stimulus (CS) trials preceding the tickle unconditioned stimulus (UCS) trials (FIG. 14A). Animals received 15 second trials consisting of 6 CS and 6 UCS trials each (3 min total). Running speed for animals to self administer tickling at the end of the 3 min session was also measured. […] N=7-8. *P<0.05.
# [3] = test system: latency to eat; assay: Rat novelty-induced hypophagia (NIH) test; assay type: in vivo, SD rats; conditions: 1 mg/kg PO, 1 hr before test, FIG. 13
# Protocol: The rat NIH test was conducted as follows. Animals were food deprived overnight before testing, and lab chow was placed into the center chamber of the open field. After NIH testing, the latency to eat in the animals' home cage was determined as a control. […] N=12 per group. *P<0.05.
# [4] = Metabolic stability in liver microsomes, human; assay type: in vitro ADME; conditions: Human (M) microsomes
# Protocol: (§1) Metabolic stability was assessed in liver microsomes as well as in hepatocytes with few compounds.
# (§2) Procedure for microsomal stability: • Species: Rat and human • Test concentration: 1 μM (n=2) • Protein concentration: 0.125 mg/mL • Time points: 0, 5, 15, 30 and 60 minutes • Controls: Minus NADPH and buffer • Analysis: Parent compound monitoring LC-MS/MS (Peak area ratios)
# [5] = test system: floating behavior; assay: Porsolt test procedure 1; assay type: in vivo, Sprague-Dawley rats
# Protocol: Animals were placed in a 46 cm tall×20 cm in diameter clear glass tube filled to 30 cm with tap water at room temperature (23° C.±0.5° C.) for 5 min on the test day. All animals were towel dried after each swimming session by the experimenter. Water was changed after every other animal. Animals were videotaped and total duration (sec) of floating behavior (as defined as the minimal movement required in order to maintain the animal's head above the water) was quantified by a blind experimenter.
# [6] = in vitro; conditions: dog, MDCK; for Papp: concentration 5 μM
# Protocol: (§3) Procedure. Permeability of test compounds was assessed using MDCK (Madin-Darby Canine Kidney Cells) using the below parameters. • Test concentration: 5 μM (n=3) • Buffer: HBSS pH 7.4 • Time points: 0, 15, 30, 60 and 90 min • Analysis: Parent compound monitoring using LC-MS/MS
# [7] = Metabolic stability in liver microsomes, rat; assay type: in vitro ADME; conditions: Rat (M) microsomes
# Protocol: as §1, §2
# [8] = Bioavailability of CM-4A (plasma concentration after IV/PO dosing); assay type: in vivo, Sprague Dawley rats; conditions: 0.1 to 10 mg/kg PO, rat plasma, FIG. 1
# Protocol: Procedure. […] Data for male and female were combined for 1 mg/kg PO dosing given that no gender difference was seen. Plasma was separated by centrifugation (1,000×G for 10 min at 4° C.) and plasma samples stored at −80° C. until assay. […]. On the day of the assay, samples and spiked plasma standards were thawed at 4° C., extracted in 3 volumes of ice cold acetonitrile, centrifuged at 25,000×G for 10 min at 4° C., and the supernatant was loaded into autosampler vials (4° C.).
# [9] = test system: long-term depression (LTD); assay: Long-term depression (LTD) in hippocampal slices; assay type: cell-based; conditions: 1 μM, FIG. 7
# Protocol: (Note 0.001 μM represents no drug addition; Each point is mean±SEM of 8-10 slices).
# [10] = test system: fall latencies; assay: Rat accelerating rota-rod test; assay type: in vivo, SD rats; conditions: 10-100 mg/kg PO, 30 and 60 min post-dosing, FIG. 16
# Protocol: Animals were tested immediately before dosing (0 min), 30 min post-dosing, and 60 min post-dosing using a within subjects design.
# [11] = test system: open field behavior; assay: Rat open field test; assay type: in vivo, SD rats; conditions: 1 mg/kg PO, 1 hr before test, FIG. 15
# [12] = Metabolic stability in hepatocytes, human; assay type: in vitro ADME; conditions: Human (H) hepatocytes, 10 μM
# Protocol: as §1
# (§4) Procedure for hepatocyte stability: • Stock preparation: DMSO • Buffer: Krebs Henseleit Buffer • Total Incubation volume: […] • Cell density: 1 million cells/mL • Test concentration: 10 μM with 0.5% DMSO (n=2) • Time points: 0 and 60 min • Analysis: LC-MS/MS
# [13] = test system: floating behavior; assay: Porsolt test procedure 2; assay type: in vivo, Sprague Dawley rats; conditions: 1 hr post-dosing
# Protocol: The antidepressant-like effects of test compounds were examined with the rat Porsolt test as described in Page et al. (1999) and Burgdorf et al. (2009). Male Sprague Dawley rats (2-3 month old) were used in this study. Animals were dosed with test compounds (0.3 mg/kg IV) or sterile saline vehicle (1 ml/kg IV tail vein) 1 hr before a single test session. […] Water was changed after every other animal. […] CM-6A, CM-7A, CM-8A, and CM-9A were tested in the Porsolt test. CM-5A was not tested in the Porsolt test.
# Animals received a single 15 min Porsolt habituation session on the day before the first 5 min Porsolt test. N=6 per group. *P<0.05 Fisher's PLSD post hoc test vs. vehicle.
# [14] = test system: MDCK (Madin-Darby Canine Kidney Cells); assay: in vitro; conditions: concentration 5 μM
# Protocol: as §3
# [15] = Metabolic stability in hepatocytes, rat; assay type: in vitro ADME; conditions: Rat (H) hepatocytes, 10 μM
# Protocol: as §1, §4
# [16] = Kinetic aqueous solubility (pION method); assay type: physicochemical; conditions: pH 7.4, conc. tested 200 μM with 1% DMSO, 16 h incubation
# [17] = test system: Schaffer collateral-evoked NMDA EPSCs in CA1 pyramidal neurons; assay: Long-term potentiation (LTP) assay procedure 2; assay type: cell-based, Sprague-Dawley rats; conditions: 1 μM, FIG. 8, P<0.05
# Protocol: Assays were conducted as described in Zhang et al. (2008). Sprague-Dawley rats (12-18 days old; Taconic Farms) were deeply anesthetized with isoflurane and decapitated. Brains was removed rapidly, submerged in ice-cold artificial cerebrospinal fluid (ACSF, 2-4° C.), which contained (in mM): 124 NaCl, 4 KCl, 2 MgSO4, 2 CaC12, 1.25 NaH2PO4, 26 NaHCO3, 10 glucose; at pH 7.4, gassed continuously with 95% O2/5% CO2). Brains were hemisected, the frontal lobes cut off, and individual hemispheres glued using cyanoacrylate adhesive onto a stage immersed in ice-cold ACSF gassed continuously with 95% O2/5% CO2 during slicing. […] Bath application of test compounds (1 μM) was applied 30 min prior to application of Schaffer collateral stimulus trains to elicit LTP. LTP was induced by stimulation of Schaffer collateral axons with four high frequency theta burst stimulus trains of 10×100 Hz/5 pulse bursts each, applied at an inter-burst interval of 200 ms. Each train was 2 s in duration, and trains were applied 15 s apart.
smiles,measurement,setting,value
"C[C@@H](O)[C@H](N)C(=O)N1CCC[C@H]1C(=O)N1CCC[C@@]1(Cc1ccccc1)C(=O)N[C@H](C(N)=O)[C@@H](C)O [CM-4A, (R)-N-((2S,3R)-1-amino-3-hydroxy-1-oxobutan-2-yl)-1-((S)-1-((2S,3R)-2-amino-3-hydroxybutanoyl)pyrrolidine-2-carbonyl)-2-benzylpyrrolidine-2-carboxamide]",floating time in the rat Porsolt test,"[1]; positive control, 1 mg/kg PO, 1 hr and 24 hrs post dosing, FIG. 12",robust Antidepressant-like effects
same,positive emotional learning,[2]; FIG. 14A,increases positive emotional learning
same,aversive 20-kHz USVs,[2]; FIG. 14B,decreases aversive 20-kHz USVs
same,latency to eat in the NIH test,[3],produces an antidepressant/anxiolytic-like effect
same,% Remaining at 60 minutes,[4]; 1 μM,72%
same,Stability Class,[4]; 1 μM,Moderate (% Remaining 70-90%)
same,half-life at 1 μM,[4]; liver microsomes,> 60 min
same,floating time in the rat Porsolt test (dose response),"[5]; 0.1 to 10 mg/kg PO, FIG. 9",dose- and time-dependent antidepressant effect
same,recovery at 5 μM,[6]; pH 7.4,100%
same,Papp,"[6]; pH 7.4, Papp (10^−6 cm/sec), HBSS pH 7.4",0.15 ×10⁻⁶ cm/s
same,Papp,"[6]; pH 7.4, Permeability classification",< 3 ×10⁻⁶ cm/s
same,% Remaining at 60 minutes,[7]; 1 μM,68%
same,Stability Class,[7]; 1 μM,Unstable (% Remaining <70%)
same,half-life at 1 μM,[7]; liver microsomes,> 60 min
same,oral bioavailability (dose linearity),[8],essentially linear
same,magnitude of LTD,[9],significantly reduced the magnitude of LTD
same,fall latencies (sedative/ataxia like effect),[10],does not produce a sedative/ataxia like effect
same,center compartment crosses and time (anxiolytic-like effect),[11],produces an anxiolytic-like effect
same,locomotor behavior (line crosses),[11],without effecting locomotor behavior
"C[C@@H](O)[C@H](N)C(=O)N1CCC[C@H]1C(=O)N1CCC[C@@]1(Cc1ccc(F)cc1)C(=O)N[C@H](C(N)=O)[C@@H](C)O [CM-6A, (R)-N-((2S,3R)-1-amino-3-hydroxy-1-oxobutan-2-yl)-1-((S)-1-((2S,3R)-2-amino-3-hydroxybutanoyl)pyrrolidine-2-carbonyl)-2-(4-fluorobenzyl) pyrrolidine-2-carboxamide]",% Remaining at 60 minutes,[12],98%
same,Half-life,[12],>60 min
same,Stability Class,[12],Stable (% Remaining >90%)
same,floating time in the Porsolt test,"[1]; single dose (0.3 mg/kg IV), 24 hrs post-dosing, FIG. 11C",produced an antidepressant-like effect
same,floating time in the Porsolt test,"[13]; single dose 0.3 mg/kg IV, FIG. 11A",produced an antidepressant-like effect
same,floating time in the Porsolt test,"[13]; single dose (0.3 mg/kg IV), FIG. 11B",produced an antidepressant-like effect
same,% Remaining at 60 minutes,[4]; 1 μM,88%
same,Half-life,[4]; 1 μM,>60 min
same,Stability Class,[4]; 1 μM,Moderate (% Remaining 70-90%)
same,Permeability classification,[14],Low (≦3 × 10^−6 cm/sec)
same,Recovery,[14],100
same,% Remaining at 60 minutes,[15],87%
same,Half-life,[15],>60 min
same,Stability Class,[15],Moderate (% Remaining 70-90%)
same,% Remaining at 60 minutes,[7]; 1 μM,100%
same,Half-life,[7]; 1 μM,>60 min
same,Stability Class,[7]; 1 μM,Stable (% Remaining >90%)
same,Mean Solubility (N = 3) at pH,[16],>200
same,long-term potentiation after high frequency stimulation (fEPSP slope),[17],increased long-term potentiation
"C[C@@H](O)[C@H](N)C(=O)N1CCC[C@H]1C(=O)N1CCC[C@H]1C(=O)N[C@H](C(N)=O)[C@@H](C)O [GLYX-13, reference compound] (H-TPPT-NH2)",magnitude of LTD,[9],significantly reduced the magnitude of LTD
"NS(=O)(=O)c1cccc2c1c([N+](=O)[O-])cc1[nH]c(=O)c(=O)[nH]c12 [NBQX, 2,3-dihydroxy-6-nitro-7-sulfamoyl-benzo[f]quinoxaline-2,3-dione, reference compound]","floating time in the rat Porsolt test, NBQX pretreatment","[5]; NBQX 10 mg/kg IP 10 min before CM-4A 1 mg/kg PO, FIG. 10",blocks the antidepressant-like effect of CM-4A
